What was measured:
goosegrass = experiment: Test C pre-/postemergence herbicide test; format: in vivo, Eleusine indica; details: for Goosegrass plant response rating: 500 g ai/ha
Summary of the method: (§1)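 Pre- and postemergence application, solvent/surfactant formulation; post at 1- to 4-leaf stage (2–18 cm). Greenhouse 12–14 d. Visual rating vs controls, 0 = no effect, 100 = complete control.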

lambsquarters = experiment: Test C pre-/postemergence herbicide test; format: in vivo, Chenopodium album; details: for Lambsquarters plant response rating: 500 g ai/ha
Summary of the method: as §1

eastern black nightshade = experiment: Test C pre-/postemergence herbicide test; format: in vivo, Solanum ptycanthum; details: for Plant response rating (0 = no effect, 100 = complete control), Nightshade / Plant response rating, Nightshade: preemergence; for Nightshade plant response rating: Preemergence, 500 g ai/ha, scale 0 to 100, 0 no effect, 100 complete control
Summary of the method: as §1

ducksalad [1] = experiment: Test C flooded paddy test; format: in vivo, Heteranthera limosa; details: for Plant response rating, Ducksalad: 500 g ai/ha, visual rating after 12 to 14 days
cocklebur = experiment: Test C pre-/postemergence herbicide test; format: in vivo, Xanthium strumarium; details: for Cocklebur plant response rating: 500 g ai/ha
Summary of the method: as §1

[2] = test system: smallflower umbrella sedge; experiment: Test C flooded paddy test; format: in vivo, Cyperus difformis; details: for Plant response rating, Sedge, Umbrella: 500 g ai/ha, visual rating after 12 to 14 days
rice = experiment: Test B flooded paddy test; format: in vivo, Oryza sativa; details: 1000 g ai/ha, visual rating, scale 0 to 100 (0 no effect, 100 complete control), 13 to 15 days
Summary of the method: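 Scale 0–100: zero equals no visible effect, 100 complete control, judged by eye relative to controls. Timing: 13 to 15 days in greenhouse post-treatment. Growth stage at spraying: two leaves (paddy) or one to four leaves, 2–18 cm (postemergence).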

johnsongrass = experiment: Test C pre-/postemergence herbicide test; format: in vivo, Sorghum halepense; details: for Johnsongrass plant response rating: 500 g ai/ha
Summary of the method: as §1

barnyardgrass = experiment: Test B flooded paddy test; format: in vivo, Echinochloa crus-galli; details: 1000 g ai/ha, visual rating, scale 0 to 100 (0 no effect, 100 complete control), 13 to 15 days
Summary of the method: (§2)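 Visual ratings, 0 (no effect) to 100 (complete control), made versus controls after 13–15 d greenhouse. Paddy plants treated at 2-leaf stage; postemergence plants at 1- to 4-leaf stage, 2–18 cm tall.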

ducksalad [3] = experiment: Test B flooded paddy test; format: in vivo, Heteranthera limosa; details: 1000 g ai/ha, visual rating, scale 0 to 100 (0 no effect, 100 complete control), 13 to 15 days
Summary of the method: as §2

corn = experiment: Test C pre-/postemergence herbicide test; format: in vivo, Zea mays; details: for Corn plant response rating: 500 g ai/ha
Summary of the method: as §1

velvetleaf = experiment: Test C pre-/postemergence herbicide test; format: in vivo, Abutilon theophrasti; details: for Velvetleaf plant response rating: 500 g ai/ha
Summary of the method: as §1

[4] = 125 g ai/ha, scale 0 (no effect) to 100 (complete control), visual, 12 to 14 days, preemergence
[5] = Postemergence, 250 g ai/ha, scale 0 to 100, 0 no effect, 100 complete control
[6] = Preemergence, scale 0 to 100, 0 no effect, 100 complete control
[7] = postemergence, 125 g ai/ha, scale 0 to 100
[8] = postemergence, 62 g ai/ha, scale 0 to 100
[9] = 125 g ai/ha, scale 0 (no effect) to 100 (complete control), visual, 12 to 14 days
[10] = 62 g ai/ha, scale 0 to 100 (0 no effect, 100 complete control)
[11] = 125 g ai/ha, scale 0 to 100 (0 no effect, 100 complete control)
[12] = 250 g ai/ha, scale of 0 to 100, 0 is no effect, 100 is complete control
[13] = scale 0 to 100 (0 no effect, 100 complete control)
[14] = 250 g ai/ha, scale 0 to 100 (0 no effect, 100 complete control), visual, 12 to 14 days, preemergence
[15] = 62 g ai/ha, preemergence, scale 0 to 100
[16] = 250 g ai/ha, scale 0-100, preemergence

Structure (SMILES): CCNC(=O)c1cccc(NC(=O)c2cc(C(C)(C)C)nn2CC)n1 [Compound 144]
- Plant response rating (0 = no effect, 100 = complete control), Goosegrass (goosegrass; 62 g ai/ha, preemergence): 30
- Plant response rating, Goosegrass (goosegrass; [4]): 60
- Goosegrass plant response rating (goosegrass; Postemergence, scale 0 to 100): 20
- Plant response rating, Goosegrass (goosegrass; [5]): 10
- Goosegrass plant response rating (goosegrass; [6]): 80
- Plant response rating, Goosegrass (goosegrass; [7]): 5
- Plant response rating, Goosegrass (goosegrass; [8]): 5
- Plant response rating (0 = no effect, 100 = complete control), Lambsquarters (lambsquarters; 62 g ai/ha, preemergence): 95
- Plant response rating, Lambsquarters (lambsquarters; [4]): 95
- Lambsquarters plant response rating (lambsquarters; Postemergence, scale 0 to 100): 100
- Plant response rating, Lambsquarters (lambsquarters; [5]): 100
- Lambsquarters plant response rating (lambsquarters; [6]): 100
- Plant response rating, Lambsquarters (lambsquarters; [7]): 100
- Plant response rating, Lambsquarters (lambsquarters; [8]): 100
- Plant response rating (0 = no effect, 100 = complete control), Nightshade (eastern black nightshade; 62 g ai/ha): 90
- Plant response rating, Nightshade (eastern black nightshade; [9]): 100
- Nightshade plant response rating (eastern black nightshade): 100
- Ducksalad plant response rating (ducksalad [1]; [10]): 20
- Ducksalad plant response rating (ducksalad [1]; [11]): 50
- Ducksalad plant response rating (ducksalad [1]; [12]): 70
- Plant response rating, Ducksalad (ducksalad [1]; [13]): 80
- Plant response rating (0 = no effect, 100 = complete control), Cocklebur (cocklebur; 62 g ai/ha, preemergence): 0
- Plant response rating, Cocklebur (cocklebur; [4]): 0
- Plant response rating, Cocklebur (cocklebur; [14]): 0
- Cocklebur plant response rating (cocklebur; Postemergence, scale 0 to 100): 70
- Plant response rating, Cocklebur (cocklebur; [5]): 70
- Cocklebur plant response rating (cocklebur; [6]): 80
- Plant response rating, Cocklebur (cocklebur; [7]): 40
- Plant response rating, Cocklebur (cocklebur; [8]): 10
- Sedge, Umbrella plant response rating [2, 10]: 80
- Sedge, Umbrella plant response rating [2, 11]: 80
- Sedge, Umbrella plant response rating [2, 12]: 80
- Plant response rating, Sedge, Umbrella [2, 13]: 90
- Rice plant response rating (rice): 70
- Plant response rating (0 = no effect, 100 = complete control), Johnsongrass (johnsongrass; 62 g ai/ha, preemergence): 0
- Plant response rating, Johnsongrass (johnsongrass; [4]): 0
- Plant response rating, Johnsongrass (johnsongrass; [5]): 10
- Johnsongrass plant response rating (johnsongrass; [6]): 90
- Plant response rating, Johnsongrass (johnsongrass; [7]): 0
- Plant response rating, Johnsongrass (johnsongrass; [8]): 0
- Barnyardgrass plant response rating (barnyardgrass): 80
- Ducksalad plant response rating (ducksalad [3]): 90
- Plant response rating (0 = no effect, 100 = complete control), Corn (corn; 62 g ai/ha, preemergence): 0
- Plant response rating, Corn (corn; [4]): 30
- Plant response rating, Corn (corn; [14]): 40
- Corn plant response rating (corn; Postemergence, scale 0 to 100): 30
- Plant response rating, Corn (corn; [5]): 20
- Corn plant response rating (corn; [6]): 50
- Plant response rating, Corn (corn; [7]): 20
- Plant response rating, Corn (corn; [8]): 10
- Plant response rating, Velvetleaf (velvetleaf; [4]): 100
- Velvetleaf plant response rating (velvetleaf; Postemergence, scale 0 to 100): 50
- Plant response rating, Velvetleaf (velvetleaf; [5]): 50
- Velvetleaf plant response rating (velvetleaf; [6]): 100
- Plant response rating, Velvetleaf (velvetleaf; [7]): 20
- Plant response rating, Velvetleaf (velvetleaf; [8]): 0

Structure (SMILES): C#CCNC(=O)c1cccc(NC(=O)c2cc(C(C)(C)C)nn2CC)n1 [Compound 147]
- Plant response rating (0 = no effect, 100 = complete control), Goosegrass (goosegrass; 62 g ai/ha, preemergence): 0
- Plant response rating, Goosegrass (goosegrass; [4]): 20
- Goosegrass plant response rating (goosegrass; Postemergence, scale 0 to 100): 5
- Plant response rating, Goosegrass (goosegrass; [5]): 5
- Goosegrass plant response rating (goosegrass; [6]): 80
- Plant response rating, Goosegrass (goosegrass; [7]): 0
- Plant response rating, Goosegrass (goosegrass; [8]): 0
- Plant response rating (0 = no effect, 100 = complete control), Lambsquarters (lambsquarters; 62 g ai/ha, preemergence): 70
- Plant response rating, Lambsquarters (lambsquarters; [4]): 90
- Lambsquarters plant response rating (lambsquarters; Postemergence, scale 0 to 100): 100
- Plant response rating, Lambsquarters (lambsquarters; [5]): 100
- Lambsquarters plant response rating (lambsquarters; [6]): 100
- Plant response rating, Lambsquarters (lambsquarters; [7]): 100
- Plant response rating, Lambsquarters (lambsquarters; [8]): 90
- Plant response rating (0 = no effect, 100 = complete control), Nightshade (eastern black nightshade; 62 g ai/ha): 40
- Plant response rating, Nightshade (eastern black nightshade; [9]): 70
- Nightshade plant response rating (eastern black nightshade): 100
- Ducksalad plant response rating (ducksalad [1]; 16 g ai/ha, scale 0 to 100): 0
- Ducksalad plant response rating (ducksalad [1]; 31 g ai/ha, scale 0 to 100): 0
- Ducksalad plant response rating (ducksalad [1]; [10]): 0
- Ducksalad plant response rating (ducksalad [1]; [11]): 0
- Plant response rating (0 = no effect, 100 = complete control), Cocklebur (cocklebur; 62 g ai/ha, preemergence): 0
- Cocklebur plant response rating (cocklebur; Postemergence, scale 0 to 100): 20
- Plant response rating, Cocklebur (cocklebur; [5]): 5
- Cocklebur plant response rating (cocklebur; [6]): 0
- Plant response rating, Cocklebur (cocklebur; [7]): 5
- Plant response rating, Cocklebur (cocklebur; [8]): 0
- Sedge, Umbrella plant response rating ([2]; 16 g ai/ha, scale 0 to 100): 0
- Sedge, Umbrella plant response rating ([2]; 31 g ai/ha, scale 0 to 100): 20
- Sedge, Umbrella plant response rating [2, 10]: 30
- Sedge, Umbrella plant response rating [2, 11]: 50
- Rice plant response rating (rice): 50
- Plant response rating (0 = no effect, 100 = complete control), Johnsongrass (johnsongrass; 62 g ai/ha, preemergence): 0
- Plant response rating, Johnsongrass (johnsongrass; [4]): 40
- Johnsongrass plant response rating (johnsongrass; Postemergence, scale 0 to 100): 10
- Plant response rating, Johnsongrass (johnsongrass; [5]): 10
- Johnsongrass plant response rating (johnsongrass; [6]): 80
- Plant response rating, Johnsongrass (johnsongrass; [8]): 0
- Barnyardgrass plant response rating (barnyardgrass): 60
- Ducksalad plant response rating (ducksalad [3]): 80
- Plant response rating (0 = no effect, 100 = complete control), Corn (corn; 62 g ai/ha, preemergence): 0
- Plant response rating, Corn (corn; [4]): 0
- Plant response rating, Corn (corn; [14]): 0
- Corn plant response rating (corn; Postemergence, scale 0 to 100): 15
- Plant response rating, Corn (corn; [5]): 10
- Corn plant response rating (corn; [6]): 60
- Plant response rating, Corn (corn; [7]): 5
- Plant response rating, Corn (corn; [8]): 0
- Plant response rating, Velvetleaf (velvetleaf; [4]): 20
- Velvetleaf plant response rating (velvetleaf; Postemergence, scale 0 to 100): 40
- Velvetleaf plant response rating (velvetleaf; [6]): 90
- Plant response rating, Velvetleaf (velvetleaf; [7]): 30
- Plant response rating, Velvetleaf (velvetleaf; [8]): 0

Structure (SMILES): CCNC(=O)c1ccc(F)c(NC(=O)c2cn(C(C)(C)C)nc2CC)c1 [Compound 193]
- Plant response rating, Goosegrass (goosegrass; [15]): 60
- Plant response rating, Goosegrass (goosegrass; [4]): 80
- Plant response rating, Goosegrass (goosegrass; [16]): 80
- Goosegrass plant response rating (goosegrass; [6]): 95
- Plant response rating, Lambsquarters (lambsquarters; [15]): 50
- Plant response rating, Lambsquarters (lambsquarters; [4]): 100
- Plant response rating, Lambsquarters (lambsquarters; [16]): 100
- Lambsquarters plant response rating (lambsquarters; [6]): 100
- Plant response rating, Nightshade (eastern black nightshade; 62 g ai/ha, scale 0 to 100): 0
- Plant response rating, Nightshade (eastern black nightshade; [9]): 50
- Plant response rating, Nightshade (eastern black nightshade; 250 g ai/ha, scale 0-100): 85
- Nightshade plant response rating (eastern black nightshade): 100
- Ducksalad plant response rating (ducksalad [1]; [10]): 55
- Ducksalad plant response rating (ducksalad [1]; [11]): 70
- Ducksalad plant response rating (ducksalad [1]; [12]): 90
- Plant response rating, Ducksalad (ducksalad [1]; [13]): 90
- Plant response rating, Cocklebur (cocklebur; [15]): 0
- Cocklebur plant response rating (cocklebur; [6]): 100
- Sedge, Umbrella plant response rating [2, 10]: 75
- Sedge, Umbrella plant response rating [2, 11]: 75
- Sedge, Umbrella plant response rating [2, 12]: 80
- Plant response rating, Sedge, Umbrella [2, 13]: 85
- Rice plant response rating (rice): 80
- Plant response rating, Johnsongrass (johnsongrass; [15]): 60
- Plant response rating, Johnsongrass (johnsongrass; [4]): 85
- Plant response rating, Johnsongrass (johnsongrass; [16]): 90
- Johnsongrass plant response rating (johnsongrass; [6]): 100
- Barnyardgrass plant response rating (barnyardgrass): 80
- Ducksalad plant response rating (ducksalad [3]): 90
- Plant response rating, Corn (corn; [15]): 10
- Plant response rating, Corn (corn; [4]): 60
- Plant response rating, Corn (corn; [16]): 95
- Corn plant response rating (corn; [6]): 100
- Plant response rating, Velvetleaf (velvetleaf; [15]): 0
- Plant response rating, Velvetleaf (velvetleaf; [4]): 0
- Plant response rating, Velvetleaf (velvetleaf; [16]): 70
- Velvetleaf plant response rating (velvetleaf; [6]): 100

From patent US20060069132A1, “Azolecarboxamide herbicides” (priority 2004, published 2006)
